Square brackets hold non-standard residues; d marks the D form. Peptide text beside a SMILES is read from it. * marks the point of attachment. Cbz = O=C(OCc1ccccc1)*
Assays:
[1] = test system: primary B and T lymphocytes; assay: [3H]thymidine incorporation in purified primary B and T lymphocytes; type: cell-based, mouse; details: 100 μM, 72 hrs
Procedure: (§1) In order to determine the in vitro therapeutic index of Z-/mDTPs, viability and proliferation assays were also performed with primary untransformed cells of both human and mouse origin, after treatment with either 10 μM or 100 μM of Z-DTP1, Z-DTP2 and Z-DNC. To this end, bone marrow stromal cells (BMSCs) peripheral blood mononuclear cells (PBMNCs) and mesenkymal stem cells (MSCs) were purified from healthy individuals after Ficoll-Hypaque density separation, in accordance with the protocols reported in the reference by Piva R. et all 2008 Blood 111: 2765-2775). BMSCs, PBMNCs, and MSCs cells were then treated for the times indicated and with the peptide concentrations specified in FIGS. 15A and 15B. To further establish the specificity of the cytotoxic activity of Z-/mDTPs for cancer cells, we also used primary B and T lymphocytes purified from the spleen and lymph nodes of mice, respectively, essentially as described in the reference by Shirakawa et al 2010 Cell Mal immunology 1-12. B and T cells were then activated by simulation with 1 ng/mL of LPS for 16 hrs and subsequently treated with 100 μM of Z-DTP1, Z-DTP2 or Z-DNC for 72 hrs as shown in FIG. 15B.

Gadd45β/MKK7 interaction = biological target: T1, Gadd45β/MKK7 interaction (Homo sapiens, UniProt O14733); assay: ELISA competition assay after 48-hr pre-incubation with human serum at 37° C.; type: binding; details: for stability after pre-incubation with human serum: result in words
T1 construct: The GST-fused full-length kinase was coated for 16 h at 4° C., at a concentration of 42 nM; made in house
T1 sequence (O14733 1-419): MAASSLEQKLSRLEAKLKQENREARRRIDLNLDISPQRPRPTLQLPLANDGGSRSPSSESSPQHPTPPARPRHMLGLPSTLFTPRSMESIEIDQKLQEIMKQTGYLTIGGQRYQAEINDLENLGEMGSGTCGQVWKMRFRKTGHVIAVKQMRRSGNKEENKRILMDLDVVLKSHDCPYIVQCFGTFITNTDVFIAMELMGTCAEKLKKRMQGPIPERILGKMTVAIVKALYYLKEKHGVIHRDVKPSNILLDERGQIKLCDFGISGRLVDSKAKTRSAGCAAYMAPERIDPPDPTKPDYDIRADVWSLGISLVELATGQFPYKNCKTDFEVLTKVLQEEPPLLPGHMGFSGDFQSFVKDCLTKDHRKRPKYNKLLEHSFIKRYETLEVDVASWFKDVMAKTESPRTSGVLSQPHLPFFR
Procedure: In FIG. 4, Gadd45β/MKK7 binding, competition ELISA assays were carried out to determine the stability of Z-conjugated D-tetrapeptides in human serum. […] ELISA were performed as described in FIG. 3 C. Briefly, 100 μl of 42 nM of recombinant GST-MKK7 in ELISA buffer (25 mM Tris pH 7.5, 150 mM NaCl, 1 mM DTT, 1 mM EDTA) were coated onto wells of 96-well plates by overnight incubation at 4° C. After blocking with 2% of NFDM for 1 hr at 37° C., plates were washed with TPBS, and then 21 nM of recombinant, biotinylated human (h)Gadd45β were added to the wells together with increasing concentrations of tetrapeptides which had either been subjected or had not been subjected to pre-incubation with human serum, as indicated. For a further discussion of the conditions used for the competition ELISA assay, the reader is directed to Tornatore et al 2008 JMB, 378: 97-111 and the references therein.

BMSCs, PBMNCs and MSCs = assay: Viability/proliferation of primary untransformed human cells; type: cell-based; details: up to 100 μM; 48 hrs or 144 hrs
Procedure: as §1

[2] = test system: IKK/NF-κB, ERK and p38 pathways; assay: Activation of IKK/NF-κB, ERK and p38 pathways in multiple myeloma cells; type: cell-based, human; details: data not shown
MKK7 = biological target: T2, MKK7 (Homo sapiens, UniProt O14733); assay: MKK7 kinase assay in the absence of Gadd45β; type: biochemical; details: 1 nM or 5 nM peptide
T2 construct: expressed in transfected cells; host or cells: HEK-293
T2 sequence (O14733 1-419): T1 sequence (O14733 1-419)
Procedure: In FIG. 6, transient transfection of pcDNA-FLAG-MKK7 in HEK-293 cells was performed using the method of Ca3(PO4)2 precipitation, essentially as described in Papa, S et al., (2004) Nat. Cell Biol. 6, 146-153 and references therein. 36 hrs after transfection, the cells were treated with 100 ng/ml phorbol 12-myristate 13-acetate (PMA) and 1 μM ionomycin for 30 min at 37° C. Cell extracts were prepared as described in example 4 and used for immunoprecipitation with anti-FLAG antibodies (binding to FLAG-MKK7) as described in Papa, S et al., (2004) Nat. Cell Biol. 6, 146-153 and references therein. Briefly, 50 μg of cell lysate from PMA-ionomycin (P/D-treated or untreated, HEK-293 cells transiently expressing FLAG-MKK7 was incubated with 10 μl of anti-FLAG M2 Affinity Gel (SIGMA) for 4 hrs at 4° C. during rotation. The immunoprecipitates were then washed 3 times in lysis buffer and twice more in kinase buffer (10 mM HEPES, 5 mM MgCl2, 1 mM MnCl2,12.5 mM β-glycerophosphate, 2 mM DTT, 4 mM NaF and 0.1 mM Na3VO4). MKK7 catalytic activity was finally measured in kinase assays by incubating FLAG-MKK7 immunoprecipitates at 30° C. for 20 min with 20 μl of kinase buffer containing 2 μM of recombinant GST-JNK1 and 5 μCi of [γ-^32P]ATP) (kinase reaction), as described in Papa, S et a., (2004) Nat. Cell Biol. 6, 146-153 and references therein. […]

Gadd45β-inhibited MKK7 = biological target: T3, Gadd45β-inhibited MKK7 (Homo sapiens, UniProt O14733); assay: MKK7 kinase assay in the presence of recombinant hGadd45β; type: biochemical; details: 1 nM or 5 nM peptide, 5 μM GST-hGadd45β
T3 construct: expressed in transfected cells; host or cells: HEK-293 (FLAG-MKK7); bacteria (GST-hGadd45β)
T3 sequence (O14733 1-419): T1 sequence (O14733 1-419)
Procedure: In FIG. 6, transient transfection of pcDNA-FLAG-MKK7 in HEK-293 cells was performed using the method of Ca3(PO4)2 precipitation, essentially as described in Papa, S et al., (2004) Nat. Cell Biol. 6, 146-153 and references therein. 36 hrs after transfection, the cells were treated with 100 ng/ml phorbol 12-myristate 13-acetate (PMA) and 1 μM ionomycin for 30 min at 37° C. Cell extracts were prepared as described in example 4 and used for immunoprecipitation with anti-FLAG antibodies (binding to FLAG-MKK7) as described in Papa, S et al., (2004) Nat. Cell Biol. 6, 146-153 and references therein. Briefly, 50 μg of cell lysate from PMA-ionomycin (P/D-treated or untreated, HEK-293 cells transiently expressing FLAG-MKK7 was incubated with 10 μl of anti-FLAG M2 Affinity Gel (SIGMA) for 4 hrs at 4° C. during rotation. The immunoprecipitates were then washed 3 times in lysis buffer and twice more in kinase buffer (10 mM HEPES, 5 mM MgCl2, 1 mM MnCl2,12.5 mM β-glycerophosphate, 2 mM DTT, 4 mM NaF and 0.1 mM Na3VO4). MKK7 catalytic activity was finally measured in kinase assays by incubating FLAG-MKK7 immunoprecipitates at 30° C. for 20 min with 20 μl of kinase buffer containing 2 μM of recombinant GST-JNK1 and 5 μCi of [γ-^32P]ATP) (kinase reaction), as described in Papa, S et a., (2004) Nat. Cell Biol. 6, 146-153 and references therein.
In some reactions, to test the ability of D-tetrapeptide antagonists to disrupt the Gadd45β-MKK7 interaction and so release the catalytic activity of MKK7 from Gadd45β-afforded inhibition, FLAG-MKK7 immunoprecipitates were 1) first pre-incubated for 10 min at 30° C. with either 1 nM or 5 nM of DTP1, DTP2 or negative control (NC) D-tetrapeptides, NC1, NC2, NC3 and NC4, and 2) then incubated for another 10 min at 30° C. with or without 5 μM of a GST-fusion protein of recombinant human (h)Gadd45β (GST-hGadd45β; purified from bacterial lysates as described in Papa, S., (2007) J. Biol. Chem. 282, 19029-19041), before using them for the kinase reaction described above, as indicated in FIG. 6.
In all cases, kinase reactions were terminated by the addition of Laemmli sample buffer. […] For a further discussion of MKK7 kinase assay conditions, the reader is directed to Papa, S et al., (2007) J. Biol. Chem. 282, 19029-19041 and Papa, S et al., (2004) Nat. Cell Biol. 6, 146-153 and the references therein.

| Structure (SMILES) | toxicity to primary B and T lymphocytes from mice [1] | IC50 (Gadd45β/MKK7 interaction) | stability after pre-incubation with human serum (Gadd45β/MKK7 interaction) | toxicity to normal primary human cells (BMSCs, PBMNCs, MSCs) (BMSCs, PBMNCs and MSCs) | effects on the IKK/NF-κB, ERK and p38 pathways [2] | inhibition of MKK7 catalytic activity in the absence of Gadd45β (MKK7) | restoration of MKK7 catalytic activity (Gadd45β-inhibited MKK7) |
| --- | --- | --- | --- | --- | --- | --- | --- |
| NC(=O)[C@@H](Cc1ccccc1)NC(=O)[C@@H](Cc1c[nH]cn1)NC(=O)[C@@H](CC(=O)O)NC(=O)[C@@H](Cc1ccc(O)cc1)NC(=O)OCc1ccccc1 [Compound 1, Z-Tyr-Asp-His-Phe-NH2] (Cbz-[dY][dD][dH][dF]-NH2) | no toxicity | 0.19 nM | completely stable | no toxicity | no effects were observed |  |  |
| N=C(N)NCCC[C@@H](NC(=O)[C@@H](CCC(=O)O)NC(=O)[C@@H](Cc1ccc(O)cc1)NC(=O)OCc1ccccc1)C(=O)N[C@H](Cc1ccccc1)C(N)=O [Compound 9, Z-D-Tyr-D-Glu-D-Arg-D-Phe-NH2] (Cbz-[dY][dE][dR][dF]-NH2) | no toxicity | 0.18 nM | completely stable | no toxicity |  |  |  |
| CC(=O)N[C@H](Cc1ccc(O)cc1)C(=O)N[C@H](CCCNC(=N)N)C(=O)N[C@H](Cc1ccccc1)C(N)=O [Compound 17, Ac-D-Tyr-D-Arg-D-Phe-NH2] (Ac-[dY]-[dR]-[dF]-NH2) |  |  |  |  | no effects were observed |  |  |
| CC(=O)N[C@H](Cc1ccc(O)cc1)C(=O)N[C@H](CC(=O)O)C(=O)N[C@H](Cc1c[nH]cn1)C(=O)N[C@H](Cc1ccccc1)C(N)=O [DTP1, Acetyl-(D-Tyr)-(D-Asp)-(D-His)-(D-Phe)-NH2] (Ac-[dY][dD][dH][dF]-NH2) |  |  |  |  |  | nor the active tetrapeptides, DTP1 and DTP2, afforded any inhibition | fully restored the catalytic activity of MKK7 |
| CC(=O)N[C@H](Cc1ccc(O)cc1)C(=O)N[C@H](CCC(=O)O)C(=O)N[C@H](CCCNC(=N)N)C(=O)N[C@H](Cc1ccccc1)C(N)=O [DTP2, Acetyl-(D-Tyr)-(D-Glu)-(D-Arg)-(D-Phe)-NH2] (Ac-[dY][dE][dR][dF]-NH2) |  |  |  |  |  | nor the active tetrapeptides, DTP1 and DTP2, afforded any inhibition | fully restored the catalytic activity of MKK7 |
